# Results reported in paper PMC5218480 (PLoS ONE, 2017).
# Test system: MV-4-11 cells
# Experiment: Gene expression microarray analysis (Affymetrix PrimeView) and GSEA
# Assay type: cell-based, human
# Design: RFU PODN (11730768_x_at) / Fold change /veh PODN (11730768_x_at) / RFU LINC00158 (11744669_a_at) / Fold change /veh LINC00158 (11744669_a_at) / RFU DUSP10 (11751237_a_at) / Fold change /veh DUSP10 (11751237_a_at) / RFU ID3 (11757404_x_at) / Fold change /veh ID3 (11757404_x_at) / RFU PLEKHG5 (11737974_s_at) / Fold change /veh PLEKHG5 (11737974_s_at) / RFU LRRC4B (11730491_at) / Fold change /veh LRRC4B (11730491_at) / RFU GIMAP4 (11747438_a_at) / Fold change /veh GIMAP4 (11747438_a_at) / RFU KRT8 (11758183_x_at) / Fold change /veh KRT8 (11758183_x_at) / RFU CNN1 (11734310_a_at) / Fold change /veh CNN1 (11734310_a_at) / RFU VPS37D (11726825_at) / Fold change /veh VPS37D (11726825_at) / RFU C10orf10 (11716522_x_at) / Fold change /veh C10orf10 (11716522_x_at) / RFU KIR2DL2 /// KIR2DL4 /// KIR2DL5A /// KIR2DL5B /// KIR2DS1 /// KIR2DS2 /// KIR2DS3 /// KIR2DS4 /// KIR3DL3 /// KIR3DL3 /// KIR3DS1 (11738374_at) / Fold change /veh KIR2DL2 /// KIR2DL4 /// KIR2DL5A /// KIR2DL5B /// KIR2DS1 /// KIR2DS2 /// KIR2DS3 /// KIR2DS4 /// KIR3DL3 /// KIR3DL3 /// KIR3DS1 (11738374_at) / RFU C1QL1 (11718748_at) / Fold change /veh C1QL1 (11718748_at) / RFU TMPRSS4 (11747572_a_at) / Fold change /veh TMPRSS4 (11747572_a_at) / RFU HAMP (11756126_x_at) / Fold change /veh HAMP (11756126_x_at) / RFU RNFT2 (11725882_a_at) / Fold change /veh RNFT2 (11725882_a_at) / RFU NR4A2 (11747474_a_at) / Fold change /veh NR4A2 (11747474_a_at) / RFU ABCC12 (11746883_a_at) / Fold change /veh ABCC12 (11746883_a_at) / RFU TMEM136 (11760407_x_at) / Fold change /veh TMEM136 (11760407_x_at) / RFU CLDN22 /// WWC2 (11732394_at) / Fold change /veh CLDN22 /// WWC2 (11732394_at) / RFU HLA-DPB1 (11760878_x_at) / Fold change /veh HLA-DPB1 (11760878_x_at) / RFU SPINT1 (11716480_a_at) / Fold change /veh SPINT1 (11716480_a_at) / RFU GAP43 (11754022_s_at) / Fold change /veh GAP43 (11754022_s_at) / RFU A4GNT (11735810_at) / Fold change /veh A4GNT (11735810_at) / RFU PRB3 (11715151_x_at) / Fold change /veh PRB3 (11715151_x_at) / RFU TUBB4B (11761932_at) / Fold change /veh TUBB4B (11761932_at) / RFU CAPN14 (11732068_a_at) / Fold change /veh CAPN14 (11732068_a_at) / RFU TMCC2 (11721928_a_at) / Fold change /veh TMCC2 (11721928_a_at) / RFU IRGQ (11745062_a_at) / Fold change /veh IRGQ (11745062_a_at) / RFU FAM174B (11720279_a_at) / Fold change /veh FAM174B (11720279_a_at) / RFU TMPRSS4 (11748680_a_at) / Fold change /veh TMPRSS4 (11748680_a_at) / RFU FAM212B (11763350_a_at) / Fold change /veh FAM212B (11763350_a_at) / RFU PLEKHG5 (11743358_a_at) / Fold change /veh PLEKHG5 (11743358_a_at) / RFU ZSCAN30 (11745921_a_at) / Fold change /veh ZSCAN30 (11745921_a_at) / RFU CMKLR1 (11741424_a_at) / Fold change /veh CMKLR1 (11741424_a_at) / RFU LOC101060620 /// MAPK8IP1 (11723275_at) / Fold change /veh LOC101060620 /// MAPK8IP1 (11723275_at) / RFU SPTSSB (11747773_x_at) / Fold change /veh SPTSSB (11747773_x_at) / RFU PRSS12 (11739890_at) / Fold change /veh PRSS12 (11739890_at) / RFU BIN1 (11741810_x_at) / Fold change /veh BIN1 (11741810_x_at) / RFU WNT11 (11732464_a_at) / Fold change /veh WNT11 (11732464_a_at) / RFU C10orf10 (11716521_a_at) / Fold change /veh C10orf10 (11716521_a_at) / RFU C5orf56 (11738089_at) / Fold change /veh C5orf56 (11738089_at) / RFU CYB561 (11721691_x_at) / Fold change /veh CYB561 (11721691_x_at) / RFU ANKRD19P (11752326_a_at) / Fold change /veh ANKRD19P (11752326_a_at) / RFU OR2T12 /// OR2T33 /// OR2T8 (11738714_s_at) / Fold change /veh OR2T12 /// OR2T33 /// OR2T8 (11738714_s_at) / RFU VCAN (11748164_a_at) / Fold change /veh VCAN (11748164_a_at) / RFU JSRP1 (11732532_at) / Fold change /veh JSRP1 (11732532_at) / RFU KRTAP10-11 (11738290_x_at) / Fold change /veh KRTAP10-11 (11738290_x_at) / RFU MYO3A (11730013_a_at) / Fold change /veh MYO3A (11730013_a_at) / RFU EBF3 (11725865_a_at) / Fold change /veh EBF3 (11725865_a_at) / RFU CAMK2N1 (11719241_x_at) / Fold change /veh CAMK2N1 (11719241_x_at) / RFU C5orf56 (11738088_a_at) / Fold change /veh C5orf56 (11738088_a_at) / RFU OLFML3 (11715873_a_at) / Fold change /veh OLFML3 (11715873_a_at) / RFU LOC100653217 /// NTM (11731650_a_at) / Fold change /veh LOC100653217 /// NTM (11731650_a_at) / RFU MAPK11 (11762145_a_at) / Fold change /veh MAPK11 (11762145_a_at) / RFU FIZ1 (11724087_x_at) / Fold change /veh FIZ1 (11724087_x_at) / RFU OASL (11726364_x_at) / Fold change /veh OASL (11726364_x_at) / RFU SOX15 (11748057_x_at) / Fold change /veh SOX15 (11748057_x_at) / RFU CD79A (11719716_a_at) / Fold change /veh CD79A (11719716_a_at) / RFU HIST1H1D (11736915_at) / Fold change /veh HIST1H1D (11736915_at) / RFU CASKIN2 (11723855_a_at) / Fold change /veh CASKIN2 (11723855_a_at) / RFU LOC730098 (11760151_x_at) / Fold change /veh LOC730098 (11760151_x_at) / RFU OR4N2 (11742367_at) / Fold change /veh OR4N2 (11742367_at) / RFU PRRT2 (11749266_a_at) / Fold change /veh PRRT2 (11749266_a_at) / RFU SNX32 (11753110_a_at) / Fold change /veh SNX32 (11753110_a_at) / RFU CDHR5 (11726645_a_at) / Fold change /veh CDHR5 (11726645_a_at) / RFU RCAN1 (11760418_a_at) / Fold change /veh RCAN1 (11760418_a_at) / RFU FAM167A (11723789_a_at) / Fold change /veh FAM167A (11723789_a_at) / RFU FAM26E (11764081_at) / Fold change /veh FAM26E (11764081_at) / RFU ISYNA1 (11749810_s_at) / Fold change /veh ISYNA1 (11749810_s_at) / RFU ACY1 (11761880_at) / Fold change /veh ACY1 (11761880_at) / RFU 11764098_at / Fold change /veh 11764098_at / RFU SAMD14 (11745864_x_at) / Fold change /veh SAMD14 (11745864_x_at) / RFU NPB (11741838_a_at) / Fold change /veh NPB (11741838_a_at) / RFU TMPRSS6 (11731388_a_at) / Fold change /veh TMPRSS6 (11731388_a_at) / RFU KRTAP10-2 (11738614_at) / Fold change /veh KRTAP10-2 (11738614_at) / RFU ARHGAP8 /// PRR5-ARHGAP8 (11727945_x_at) / Fold change /veh ARHGAP8 /// PRR5-ARHGAP8 (11727945_x_at) / RFU KRTAP5-7 /// NADSYN1 (11734609_at) / Fold change /veh KRTAP5-7 /// NADSYN1 (11734609_at) / RFU RASL12 (11751679_a_at) / Fold change /veh RASL12 (11751679_a_at) / RFU CDKN2B (11736163_a_at) / Fold change /veh CDKN2B (11736163_a_at) / RFU PRF1 (11729649_at) / Fold change /veh PRF1 (11729649_at) / RFU, ZNF638 /// ZNF638-IT1 / Fold change vs veh, ZNF638 /// ZNF638-IT1 / RFU, PANK3 / Fold change vs veh, PANK3 / RFU, SH3YL1 / Fold change vs veh, SH3YL1 / RFU, ZEB2 / Fold change vs veh, ZEB2 / RFU, NRIP1 / Fold change vs veh, NRIP1 / RFU, PTTG1IP / Fold change vs veh, PTTG1IP / RFU, CAPN2 / Fold change vs veh, CAPN2 / RFU, MED14 / Fold change vs veh, MED14 / RFU, SNORA58 / Fold change vs veh, SNORA58 / RFU, C1orf63 / Fold change vs veh, C1orf63 / RFU, LRRFIP1 / Fold change vs veh, LRRFIP1 / RFU, NDUFAF7 / Fold change vs veh, NDUFAF7 / RFU, SLC12A2 / Fold change vs veh, SLC12A2 / RFU, IBTK / Fold change vs veh, IBTK / RFU, ESF1 / Fold change vs veh, ESF1 / Fold change vs veh, TMEM50B / RFU, TAOK1 / Fold change vs veh, TAOK1 / RFU, ACBD3 / Fold change vs veh, ACBD3 / RFU, TMA16 / Fold change vs veh, TMA16 / RFU, RWDD3 / Fold change vs veh, RWDD3 / RFU, BCAT1 / Fold change vs veh, BCAT1 / RFU, EDEM3 / Fold change vs veh, EDEM3 / RFU, TMEM33 / Fold change vs veh, TMEM33 / RFU, WDR75 / Fold change vs veh, WDR75 / RFU, AHCTF1 / Fold change vs veh, AHCTF1 / RFU, TFRC / Fold change vs veh, TFRC / RFU, ZDHHC17 / Fold change vs veh, ZDHHC17 / RFU, NOM1 / Fold change vs veh, NOM1 / RFU, ARL8B / Fold change vs veh, ARL8B / RFU, ZBTB11 / Fold change vs veh, ZBTB11 / RFU, TAMM41 / Fold change vs veh, TAMM41 / RFU, KIAA1704 /// LOC100996395 / Fold change vs veh, KIAA1704 /// LOC100996395 / RFU, ING1 / Fold change vs veh, ING1 / RFU, TRMT61B / Fold change vs veh, TRMT61B / RFU, FUBP3 / Fold change vs veh, FUBP3 / RFU, TP53 / Fold change vs veh, TP53 / RFU, TNKS2 / Fold change vs veh, TNKS2 / RFU, ZFP14 / Fold change vs veh, ZFP14 / RFU, ACTR2 / Fold change vs veh, ACTR2 / RFU, PPP3R1 / Fold change vs veh, PPP3R1 / RFU, PIK3R1 / Fold change vs veh, PIK3R1 / RFU, HNRNPA1 / Fold change vs veh, HNRNPA1 / RFU, RNF170 / Fold change vs veh, RNF170 / RFU, ZNF28 / Fold change vs veh, ZNF28 / RFU, RNGTT / Fold change vs veh, RNGTT / RFU, OGT / Fold change vs veh, OGT / RFU, BRD1 / Fold change vs veh, BRD1 / RFU, MARS / Fold change vs veh, MARS / RFU, ZNF655 / Fold change vs veh, ZNF655 / RFU, FAHD1 / Fold change vs veh, FAHD1 / RFU, BDP1 / Fold change vs veh, BDP1 / RFU, LRRCC1 / Fold change vs veh, LRRCC1 / RFU, ARID1A / Fold change vs veh, ARID1A / RFU, ZNF146 / Fold change vs veh, ZNF146 / RFU, ZNF330 / Fold change vs veh, ZNF330 / RFU, GPN3 / Fold change vs veh, GPN3 / RFU, C9orf123 / Fold change vs veh, C9orf123 / RFU, N4BP2L2 / Fold change vs veh, N4BP2L2 / RFU, ARFIP1 / Fold change vs veh, ARFIP1 / RFU, FAM179B / Fold change vs veh, FAM179B / RFU, BCL10 / Fold change vs veh, BCL10 / RFU, UHRF1BP1L / Fold change vs veh, UHRF1BP1L / RFU, BET1 / Fold change vs veh, BET1 / RFU, CNOT2 / Fold change vs veh, CNOT2 / RFU, ZNF268 / Fold change vs veh, ZNF268 / Fold change vs veh, ZNF507 / RFU, DGCR2 / Fold change vs veh, DGCR2 / RFU, WDSUB1 / Fold change vs veh, WDSUB1 / Fold change vs veh, HSP90B1 /// MIR3652 / RFU, ADSS / Fold change vs veh, ADSS / RFU, GK / Fold change vs veh, GK / RFU, ZNF148 / Fold change vs veh, ZNF148 / RFU, TAF9 / Fold change vs veh, TAF9 / RFU, SLC1A5 / Fold change vs veh, SLC1A5 / RFU, SLMO2 / Fold change vs veh, SLMO2 / RFU, ABCC4 / Fold change vs veh, ABCC4 / RFU, LOC101060439 /// RAP1B / Fold change vs veh, LOC101060439 /// RAP1B / RFU, RFX7 / Fold change vs veh, RFX7 / RFU, GTPBP10 / Fold change vs veh, GTPBP10 / RFU, CNEP1R1 / Fold change vs veh, CNEP1R1 / RFU, BIVM-ERCC5 /// ERCC5 / Fold change vs veh, BIVM-ERCC5 /// ERCC5 / RFU, ILF3 / Fold change vs veh, ILF3 / RFU 11762660_at / Fold change /veh 11762660_at / RFU VCAN (11757783_s_at) / Fold change /veh VCAN (11757783_s_at) / RFU DDX43 (11728927_at) / Fold change /veh DDX43 (11728927_at) / RFU KRT8 (11758188_x_at) / Fold change /veh KRT8 (11758188_x_at) / RFU NKD1 (11759106_at) / Fold change /veh NKD1 (11759106_at) / RFU SRD5A1 (11742802_a_at) / Fold change /veh SRD5A1 (11742802_a_at) / RFU TPSAB1 /// TPSB2 (11721975_s_at) / Fold change /veh TPSAB1 /// TPSB2 (11721975_s_at) / RFU GSTM3 (11746129_a_at) / Fold change /veh GSTM3 (11746129_a_at) / RFU IL23R (11737362_x_at) / Fold change /veh IL23R (11737362_x_at) / RFU TMEM51 (11727254_a_at) / Fold change /veh TMEM51 (11727254_a_at) / RFU PIWIL2 (11732686_x_at) / Fold change /veh PIWIL2 (11732686_x_at) / RFU ORM1 (11744905_x_at) / Fold change /veh ORM1 (11744905_x_at) / RFU CCDC152 (11743942_at) / Fold change /veh CCDC152 (11743942_at) / RFU ECM1 (11717891_a_at) / Fold change /veh ECM1 (11717891_a_at) / RFU IL23R (11748794_a_at) / Fold change /veh IL23R (11748794_a_at) / RFU TNFAIP8L3 (11732012_x_at) / Fold change /veh TNFAIP8L3 (11732012_x_at) / RFU MBOAT4 (11741988_at) / Fold change /veh MBOAT4 (11741988_at) / RFU 11764193_at / Fold change /veh 11764193_at / RFU TMEM53 (11763286_at) / Fold change /veh TMEM53 (11763286_at) / RFU MAGEB2 (11727129_at) / Fold change /veh MAGEB2 (11727129_at) / RFU TMEM200A (11744735_a_at) / Fold change /veh TMEM200A (11744735_a_at) / RFU CCDC152 (11751479_a_at) / Fold change /veh CCDC152 (11751479_a_at) / RFU FAM211A (11726209_a_at) / Fold change /veh FAM211A (11726209_a_at) / RFU RGS16 (11746705_a_at) / Fold change /veh RGS16 (11746705_a_at) / RFU VCAN (11755009_s_at) / Fold change /veh VCAN (11755009_s_at) / RFU RHOB (11743442_s_at) / Fold change /veh RHOB (11743442_s_at) / RFU RGS16 (11720943_a_at) / Fold change /veh RGS16 (11720943_a_at) / RFU RGS16 (11720944_at) / Fold change /veh RGS16 (11720944_at) / RFU, VPS4B / Fold change vs veh, VPS4B / RFU, CREB1 / Fold change vs veh, CREB1 / RFU, DNAJC13 / Fold change vs veh, DNAJC13 / RFU, GNAQ / Fold change vs veh, GNAQ / RFU, CDK5R1 / Fold change vs veh, CDK5R1 / RFU, ZRANB3 / Fold change vs veh, ZRANB3 / RFU, CUL4A / Fold change vs veh, CUL4A / RFU, CCNY / Fold change vs veh, CCNY / RFU, UFL1 / Fold change vs veh, UFL1 / RFU, COG3 / Fold change vs veh, COG3 / RFU, DIAPH2 / Fold change vs veh, DIAPH2 / RFU, SKA2 / Fold change vs veh, SKA2 / RFU, AFF3 / Fold change vs veh, AFF3 / RFU, LMF1 / Fold change vs veh, LMF1 / RFU, IPO11 / Fold change vs veh, IPO11 / RFU, DFFB / Fold change vs veh, DFFB / RFU, FOXP1 / Fold change vs veh, FOXP1 / RFU, CARD8 / Fold change vs veh, CARD8 / RFU, STRN3 / Fold change vs veh, STRN3 / RFU, ADK / Fold change vs veh, ADK / RFU, RASSF2 / Fold change vs veh, RASSF2 / RFU, WIPF1 / Fold change vs veh, WIPF1 / RFU, LARP1B / Fold change vs veh, LARP1B / RFU, RASA1 / Fold change vs veh, RASA1 / RFU, RB1 / Fold change vs veh, RB1 / RFU, PPFIA1 / Fold change vs veh, PPFIA1 / RFU, MAT2A / Fold change vs veh, MAT2A / RFU, CCT5 / Fold change vs veh, CCT5 / RFU, WDR92 / Fold change vs veh, WDR92 / RFU, CUX1 / Fold change vs veh, CUX1 / RFU, TTC7A / Fold change vs veh, TTC7A / RFU, TMEM135 / Fold change vs veh, TMEM135 / RFU, DEPTOR / Fold change vs veh, DEPTOR / RFU, CPM / Fold change vs veh, CPM / RFU, DNAJB6 / Fold change vs veh, DNAJB6 / RFU, CACNA2D3 / Fold change vs veh, CACNA2D3 / RFU, DTX4 / Fold change vs veh, DTX4 / RFU, TFCP2 / Fold change vs veh, TFCP2 / RFU, GMCL1 /// GMCL1P1 / Fold change vs veh, GMCL1 /// GMCL1P1 / RFU, AEBP2 / Fold change vs veh, AEBP2 / RFU, SNHG1 /// SNORD22 /// SNORD25 /// SNORD26 /// SNORD27 /// SNORD28 /// SNORD29 /// SNORD31 / Fold change vs veh, SNHG1 /// SNORD22 /// SNORD25 /// SNORD26 /// SNORD27 /// SNORD28 /// SNORD29 /// SNORD31 / Fold change (Aza/veh), C12orf56 (ProbeSet 11735607_a_at) / Fold change (ACY-1035/veh), C12orf56 (ProbeSet 11735607_a_at) / Fold change (Aza/veh), FGFR1OP (ProbeSet 11751329_s_at) / Fold change (ACY-1035/veh), FGFR1OP (ProbeSet 11751329_s_at) / Fold change (Aza/veh), VPS36 (ProbeSet 11739960_a_at) / Fold change (ACY-1035/veh), VPS36 (ProbeSet 11739960_a_at) / RFU SYPL1 (11715823_x_at) / Fold change /veh SYPL1 (11715823_x_at) / RFU IGFBP7 (11715501_s_at) / Fold change /veh IGFBP7 (11715501_s_at) / RFU REEP3 (11722064_at) / Fold change /veh REEP3 (11722064_at) / RFU IGLL1 (11728026_x_at) / Fold change /veh IGLL1 (11728026_x_at): dose or concentration left out as unconfirmed
# Details: MV-4-11 cells, 48 hours
structure (smiles),measurement,value
Nc1ccc(-c2cccs2)cc1NC(=O)c1ccc2c(c1)cc(C1CC1)n2CCN1CCOCC1 [ACY-1035],Fold change /veh TMPRSS6 (11731388_a_at),1.10
